Legend:
[1] = test system: prostatic carcinoma; details: 47,000 participants over 6 years (Giovannucci, E., 1995); cited from earlier work
[2] = cited from earlier work
[3] = human, in vivo, po
[4] = Di Mascio P., 1989; cited from earlier work
[5] = Distribution in the body after oral intake

SMILES: CC(C)=CCC/C(C)=C/C=C/C(C)=C/C=C/C(C)=C/C=C/C=C(C)/C=C/C=C(C)/C=C/C=C(\C)CCC=C(C)C [lycopene]
- lowering of incidence of prostatic carcinoma in the lycopene group [1]: over 30%
- solubility in water [2]: water-insoluble
- share of adsorbed compound that goes to the prostate and other internal organs [3]: over 90%
- activity in quenching oxygen-singlet among all carotenoids including β-carotene [4]: highest activity

SMILES: Oc1ccc(/C=C/c2cc(O)cc(O)c2)cc1 [resveratrol]
- solubility in organic solvents such as ethanol and acetone [2]: soluble
- solubility in water [2]: slightly soluble
- main distribution in the body [5]: heart, circulation system, along respiratory tract and skin

— patent US9610255B2, “Lycopene and resveratrol dietary supplement” (HSIEHS BIOTECH (SINGAPORE) PTE LTD, priority 2009, dated 2017)
